This note sets out measurements from patent US9549942B2, “Composition for preventing or treating degenerative brain diseases including compound downregulating expression of BACE1 proteins” (RESEARCH & BUSINESS FOUNDATION SUNGKYUNKWAN UNIVERSITY, priority 2013, dated 2017).

Data set [1] concerns BACE1 promoter. Nature of the data set: BACE1 promoter activity, BACE1 promoter-luciferase vector, Dual-Luciferase assay. Format: cell-based. As to conditions: Homo sapiens; SH-SY5Y transfected with BACE1 promoter-luciferase vector, 10 μM for 24 hours; read-out: decrease of BACE1 promoter activity. How it is done:
A BACE1 promoter-luciferase vector was transfected to brain nerve cells (SH-SY5Y). […] A change in a BACE1 promoter activity was measured using a Dual-Luciferase assay kit.

In data set [2] the test system is 3×Tg-AD mice. Nature of the data set: Morris water maze test, learning ability, Alzheimer's dementia animal model. Format: in vivo, mouse. The settings on record: 25 mg/kg orally every day for 4 weeks, on the third and fourth days. How it is done:
(§1) As an Alzheimer's dementia animal model, 3×Tg-AD mice were used. The 3×Tg-AD mouse is a mouse having overexpressed presenilin, amyloid precursor protein (APP), and Tau genes, which are frequently found in Alzheimer's dementia. The 3×Tg-AD mouse is an animal model that is widely used for research on Alzheimer's dementia (Oddo S. et al, 2003, Neuron, 39, 409-421). 25 mg/kg of chlorhexidine was orally administered every day for 4 weeks; and 0.1 mg/kg and 0.5 mg/kg of thioguanosine were orally administered every day for 8 weeks to 6-month old 3×Tg-AD mice. A Morris water maze test was used to evaluate the effects of chlorhexidine and thioguanosine administration on the mice. […] In this configuration, a treated or control subject was placed into the water with its head towards a water tank wall surface, and a time was recorded for the length of time taken for finding the escape platform. […] After 15 minutes, the mouse was placed into the water again, a subsequent time taken for finding the escape platform was recorded, and a change in the learning ability was determined. This procedure was performed over four days, and the result of change in learning ability was measured. […]

The subject of data set [3] is 3×Tg-AD mice. Nature of the data set: Morris water maze, platform removed on fifth day (memory). Format: in vivo, mouse. The settings on record: 25 mg/kg orally every day for 4 weeks, 60 seconds. The protocol:
as §1

A short description of data set [4]: Body weights and weights of organs (potential toxicity). As to conditions: mouse, in vivo, po, 25 mg/kg. The protocol:
(§2) As an Alzheimer's dementia animal model, 3×Tg-AD mice were used. The 3×Tg-AD mouse is a mouse having overexpressed presenilin, amyloid precursor protein (APP), and Tau genes, which are frequently found in Alzheimer's dementia. The 3×Tg-AD mouse is an animal model that is widely used for research on Alzheimer's dementia (Oddo S. et al, 2003, Neuron, 39, 409-421). 25 mg/kg of chlorhexidine was orally administered every day for 4 weeks; and 0.1 mg/kg and 0.5 mg/kg of thioguanosine were orally administered every day for 8 weeks to 6-month old 3×Tg-AD mice. A Morris water maze test was used to evaluate the effects of chlorhexidine and thioguanosine administration on the mice.
In order to evaluate potential toxicity of chorhexidine, the body weights and weights of organs were measured for treatment and vehicle subjects.

The test system of data set [5] is BACE1 proteins. Nature of the data set: Amount of expression of BACE1 proteins in brain nerve cells (Western blot). In kind it is cell-based, human. The settings on record: SH-SY5Y cells, treated 24 hours at 0.625, 1.25, 2.5, 5 and 10 μM, actin control. The protocol:
As brain nerve cells, human neuroblastoma cells SH-SY5Y were used. […] The SH-SY5Y cells were plated at 5×10^5 cells/well into a 6-well plate. […] Then, the amount of expression of BACE1 proteins was determined by Western blot. Actin was used throughout as a control.
For orientation: In western blotting, separated proteins are transferred to a membrane and probed.

In data set [6] the test system is APP CTFs (C83 and C99). Nature of the data set: Generation of APP CTFs (C83 and C99) under oxidative stress conditions of brain nerve cells (Western blot). Format: cell-based, human. As to conditions: SH-SY5Y cells pretreated 24 hours at 5 and 10 μM, then HNE. How it is done: In order to determine an influence of chlorhexidine and thioguanosine of the present disclosure on APP CTFs under oxidative stress conditions of brain nerve cells, the following experiment was performed. Brain nerve cells, SH-SY5Y cells, were pretreated with chlorhexidine and thioguanosine at 5 μM and 10 μM for 24 hours. Then, an oxidative stress substance HNE (4-hydroxynonenal) was used as the treatment, and the generation of APP CTFs (C83 and C99) was determined by Western blot. Under oxidative stress conditions of brain nerve cells treated in accordance with the present disclosure, changes in the generation of APP CTFs are shown in FIGS. 11 and 12.

The subject of data set [7] is Aβ40 and Aβ42. The experiment in a line: Generation of Aβ40 and Aβ42 in brain, human amyloid β assay kits (ELISA). In kind it is in vivo. As to conditions: 3×Tg-AD mouse brain, 25 mg/kg orally every day for 4 weeks. The protocol:
as §2
From the 3×Tg-AD mouse to which chlorhexidine was administered in Example 4a brain was extracted. A […] frozen section was prepared from the extracted brain using a microtome. Then, generation of Aβ was measured using immuno staining or a human amyloid 13 (1-40) assay kit (IBL) and a human amyloid β (1-42) assay kit (IBL). FIGS. 20 and 21 show the results.

The test system of data set [8] is BACE1 proteins. Nature of the data set: BACE1 protein expression in brain of Alzheimer's dementia animal model (Western blot). As to conditions: 3×Tg-AD mouse, 25 mg/kg orally every day for 4 weeks. In kind it is in vivo. How it is done: as §2
From the 3×Tg-AD mouse to which chlorhexidine was administered in Example 4a brain was extracted. The extracted brain was lysed using a tissue lysis buffer and RNA was extracted using Trizol. The amount of BACE1 expression was determined by Western blot and real-time PCR. FIGS. 18 and 19 show the results.

SMILES strings stand for the structures.

`[H]/N=C(\N/C(=N/[H])NCCCCCCNC(=N)NC(=N)Nc1ccc(Cl)cc1)Nc1ccc(Cl)cc1` [chlorhexidine, N′,N′″″-hexane-1,6-diylbis[N-(4-chlorophenyl)(imidodicarbonimidic diamide)]]: the inhibition at 10 µM in data set [1] is not below 50%. Besides, the “learning ability for finding the platform (Morris water maze)” value in data set [2] is listed as “faster learning ability for finding the platform than a control group”. In addition, the “memory: time in target quadrant after platform removed” value in data set [3] is listed as “spent the majority of time in the location in which the platform was formerly placed”. For the same compound, the toxicity result in data set [4] is “no toxicity was determined”. For the same compound, the “amount of expression of BACE1 proteins” value in data set [5] is “decreased at 5 μM and 10 μM”. In addition, in data set [6], the “increase in CTFs due to oxidative stress” value is “decreased at 5 μM and 10 μM”. In data set [7], the “generation of Aβ40” value is recorded as “decreased” and the “generation of Aβ42” value was “decreased”. The “expression of BACE1 proteins in brain” value in data set [8] is reported as “lower expression of BACE1 proteins than that of the control group”.
